The values that follow come from patent US11186571B2, “Quinazolinone derivatives useful for imaging” (LONDON HEALTH SCIENCES CENTRE RESEARCH INC., priority 2017, dated 2021).

SMILES strings stand for the structures. Where “and” joins values, the source holds several entries; their conditions need not be identical. Identical values can stand only once. Like-named read-outs stand apart in the source and are kept apart here. Bounds are passed on as bounds.

Assay [1] deals with T1, GHS-R1a (Homo sapiens, UniProt Q92847).
T1 construct: expressed in transfected cells; host or cells: HEK293
T1 sequence (Q92847 whole entry): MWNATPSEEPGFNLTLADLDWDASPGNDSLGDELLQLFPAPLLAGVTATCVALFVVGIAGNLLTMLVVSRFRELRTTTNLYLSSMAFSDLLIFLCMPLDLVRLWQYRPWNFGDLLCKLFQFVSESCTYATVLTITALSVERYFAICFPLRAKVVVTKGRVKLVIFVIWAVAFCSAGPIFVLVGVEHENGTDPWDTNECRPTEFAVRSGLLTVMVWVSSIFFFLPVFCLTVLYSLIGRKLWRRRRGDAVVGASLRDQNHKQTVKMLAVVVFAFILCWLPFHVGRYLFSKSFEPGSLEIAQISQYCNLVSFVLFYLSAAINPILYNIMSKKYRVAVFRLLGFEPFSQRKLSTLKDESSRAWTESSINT
In words: Radioligand binding assay, displacement of [125I-His9]ghrelin(1-28). As to conditions: for IC50: GHS-R1a transfected HEK293 cells, [125I-His9]ghrelin(1-28) radioligand, determined in applicant's lab; for binding affinity with GHS-R1a, stated in words: radioligand binding assay. The method, then: The affinity for GHS-R1a was determined using a radioligand binding assay. […] The resulting suspension was incubated for 20 min with shaking (550 rpm). […] All binding assays were performed in triplicate.

Assay [2] deals with T1, GHS-R1a. Conditions: cited from earlier work; for Ki: literature value, read-out: Ki values reported in the literature.

Broadly, the IC50 is the concentration at which inhibition is half-maximal. For orientation: Ki means the dissociation constant of the complex between target and ligand, obtained from inhibition or displacement.

As to `Cc1ccccc1-c1nc2ccc(Oc3ccc(F)nc3)cc2c(=O)n1C[C@H]1CCCN(CCF)C1` [Compound 5c, (S)-3-((1-(2-fluoroethyl)piperidin-3-yl)methyl)-6-((6-fluoropyridin-3-yl)oxy)-2-(o-tolyl)quinazolin-4(3H)-one], the IC50 in assay [1] is 64.2 nM and 62.4 nM. Take `O=c1c2cc(Oc3ccc(F)cc3)ccc2nc(-c2ccc(OCCO)cc2F)n1C[C@H]1CCCNC1` [Compound 14b, (S)-2-(2-fluoro-4-(2-hydroxyethoxy)phenyl)-6-(4-fluorophenoxy)-3-(piperidin-3-ylmethyl)quinazolin-4(3H)-one]: in assay [1], the IC50 was found to be 19.8 nM. Still for that read-out and setting: the figure for `O=c1c2cc(Oc3ccc(F)cn3)ccc2nc(-c2ccc(OCCO)cc2F)n1C[C@H]1CCCNC1` [Compound 14a, (S)-2-(2-fluoro-4-(2-hydroxyethoxy)phenyl)-6-((5-fluoropyridin-2-yl)oxy)-3-(piperidin-3-ylmethyl)quinazolin-4(3H)-one] is 353 nM. Still for that read-out and setting: the same measure for `Cc1ccccc1-c1nc2ccc(Oc3ccc4ncsc4c3)cc2c(=O)n1C[C@H]1CCCN(CCF)C1` [Compound 5e, (S)-6-(benzo[d]thiazol-6-yloxy)-3-((1-(2-fluoroethyl)piperidin-3-yl)methyl)-2-(o-tolyl)quinazolin-4(3H)-one]: 9.3 nM; for `CC(=O)N1CCN(c2ccc(Oc3ccc4nc(-c5ccccc5C)n(C[C@H]5CCCNC5)c(=O)c4c3)cc2)CC1` [Compound 4f, (S)-6-(4-(4-acetylpiperazin-1-yl)phenoxy)-3-(piperidin-3-ylmethyl)-2-(o-tolyl)quinazolin-4(3H)-one]: 587 nM; for `O=c1c2cc(Oc3ccc4ncsc4c3)ccc2nc(-c2ccccc2F)n1C[C@H]1CCCN(CCF)C1` [Compound 10c, (S)-6-(benzo[d]thiazol-6-yloxy)-3-((1-(2-fluoroethyl)piperidin-3-yl)methyl)-2-(2-fluorophenyl)quinazolin-4(3H)-one]: 8.1 nM. As to `Cc1ccccc1-c1nc2ccc(Oc3ccc(Oc4ccc(F)cn4)nc3)cc2c(=O)n1C[C@H]1CCCN(CCO)C1` [Compound 5d, (S)-6-((6-((5-fluoropyridin-2-yl)oxy)pyridin-3-yl)oxy)-3-((1-(2-hydroxyethyl)piperidin-3-yl)methyl)-2-(o-tolyl)quinazolin-4(3H)-one], the IC50 in assay [1] was found to be 65.2 nM. For the compound `Cc1ccccc1-c1nc2ccc(Oc3ccc(Oc4ccc(F)cn4)nc3)cc2c(=O)n1C[C@H]1CCCNC1` [Compound 4d, (S)-6-((6-((5-fluoropyridin-2-yl)oxy)pyridin-3-yl)oxy)-3-(piperidin-3-ylmethyl)-2-(o-tolyl)quinazolin-4(3H)-one], the IC50 in assay [1] was determined as 82.9 nM. The same measure, in the same setting: the same measure for `CC(C)N1CCC[C@H](Cn2c(-c3ccccc3F)nc3ccc(Oc4ccc(F)cn4)cc3c2=O)C1` [Compound 10a, (S)-2-(2-fluorophenyl)-6-((5-fluoropyridin-2-yl)oxy)-3-((1-isopropylpiperidin-3-yl)methyl)quinazolin-4(3H)-one]: 70.5 nM. With `Cc1ccccc1-c1nc2ccc(Oc3ccc(F)cc3)cc2c(=O)n1C[C@H]1CCCN(C(C)C)C1` [Compound 5f, (S)-6-(4-fluorophenoxy)-3-((1-isopropylpiperidin-3-yl)methyl)-2-(o-tolyl)quinazolin-4(3H)-one, reference compound], the half-maximal inhibitory concentration (IC50) in assay [1] was 3.7 nM; in assay [2] (literature value (Bayer work), read-out: IC50 reported for prior art compound), 0.9 nM. The “binding affinity with GHS-R1a, stated in words” value (“binding affinity with GHS-R1a” below) in assay [1] is recorded as “equivalent binding affinity with natural ghrelin”. The Ki in assay [2] is 0.9 nM.

The compound `Cc1ccccc1-c1nc2ccc(Oc3ccc(F)cn3)cc2c(=O)n1C[C@H]1CCCNC1` [Compound 4b, (S)-6-((5-fluoropyridin-2-yl)oxy)-3-(piperidin-3-ylmethyl)-2-(o-tolyl)quinazolin-4(3H)-one] came in with an IC50 in assay [1] of 52 nM. Still for that read-out and setting: the figure for `Cc1ccccc1-c1nc2ccc(Oc3ccc(F)cn3)cc2c(=O)n1C[C@H]1CCCN(C(=O)C(C)F)C1` (stereo partly drawn) [Compound 5j, 3-(((3S)-1-(2-fluoropropanoyl)piperidin-3-yl)methyl)-6-((5-fluoropyridin-2-yl)oxy)-2-(o-tolyl)quinazolin-4(3H)-one] is above 1000 nM. For the compound `Cc1ccccc1-c1nc2ccc(C(=O)c3ccc(F)cc3)cc2c(=O)n1C[C@H]1CCCN(C(C)C)C1` [Compound 20, (S)-6-(4-fluorobenzoyl)-3-((1-isopropylpiperidin-3-yl)methyl)-2-(o-tolyl)quinazolin-4(3H)-one], in assay [1], the IC50 amounted to 3.8 nM and the “binding affinity with GHS-R1a” value is “equivalent binding affinity to natural ghrelin”.

For `Cc1ccccc1-c1nc2ccc(Oc3ccc4ncsc4c3)cc2c(=O)n1C[C@H]1CCCNC1` [Compound 4e, (S)-6-(benzo[d]thiazol-6-yloxy)-3-(piperidin-3-ylmethyl)-2-(o-tolyl)quinazolin-4(3H)-one], the IC50 in assay [1] amounted to 5.3 nM.

`Cc1ccccc1-c1nc2ccc(Oc3ccc(F)nc3)cc2c(=O)n1C[C@H]1CCCNC1` [Compound 4c, (S)-6-((6-fluoropyridin-3-yl)oxy)-3-(piperidin-3-ylmethyl)-2-(o-tolyl)quinazolin-4(3H)-one]: the IC50 in assay [1] is 68.5 nM. `O=c1c2cc(Oc3ccc(F)cn3)ccc2nc(-c2ccccc2F)n1C[C@H]1CCCNC1` [Compound 9a, (S)-2-(2-fluorophenyl)-6-((5-fluoropyridin-2-yl)oxy)-3-(piperidin-3-ylmethyl)quinazolin-4(3H)-one] yielded an IC50 in assay [1] of 935 nM. Same read-out and setting: the figure for `Cc1ccccc1-c1nc2ccc(Oc3ccc(F)cn3)cc2c(=O)n1C[C@H]1CCCN(CCF)C1` [Compound 5b, (S)-3-((1-(2-fluoroethyl)piperidin-3-yl)methyl)-6-((5-fluoropyridin-2-yl)oxy)-2-(o-tolyl)quinazolin-4(3H)-one] is 20.6 nM.

`O=c1c2cc(Oc3ccc4ncsc4c3)ccc2nc(-c2ccccc2F)n1C[C@H]1CCCNC1` [Compound 9b, (S)-6-(benzo[d]thiazol-6-yloxy)-2-(2-fluorophenyl)-3-(piperidin-3-ylmethyl)quinazolin-4(3H)-one] returned an IC50 in assay [1] of 16 nM. `CC(C)N1CCC[C@H](Cn2c(-c3ccc(OCCO)cc3F)nc3ccc(Oc4ccc(F)cc4)cc3c2=O)C1` [Compound 15b, (S)-2-(2-fluoro-4-(2-hydroxyethoxy)phenyl)-6-(4-fluorophenoxy)-3-((1-isopropylpiperidin-3-yl)methyl)quinazolin-4(3H)-one]: in assay [1], the IC50 is 2.3 nM and the “binding affinity with GHS-R1a” value is “equivalent binding affinity to natural ghrelin”. Consider `Cc1ccccc1-c1nc2ccc(Oc3ccc4ncsc4c3)cc2c(=O)n1C[C@H]1CCCN(CCO)C1` [Compound 5i, (S)-6-(benzo[d]thiazol-6-yloxy)-3-((1-(2-hydroxyethyl)piperidin-3-yl)methyl)-2-(o-tolyl)quinazolin-4(3H)-one], for which, in assay [1], the IC50 came to 0.4 nM and the “binding affinity with GHS-R1a” value is listed as “sub-nanomolar binding affinity”. For `CC(C)N1CCC[C@H](Cn2c(-c3ccc(OCCF)cc3F)nc3ccc(Oc4ccc(F)cc4)cc3c2=O)C1` [Compound 17b, (S)-2-(2-fluoro-4-(2-fluoroethoxy)phenyl)-6-(4-fluorophenoxy)-3-((1-isopropylpiperidin-3-yl)methyl)quinazolin-4(3H)-one], in that order: 0.33 nM and “sub-nanomolar binding affinity”. The like results for `CC(C)N1CCC[C@H](Cn2c(-c3ccccc3F)nc3ccc(Oc4ccc5ncsc5c4)cc3c2=O)C1` [Compound 10b, (S)-6-(benzo[d]thiazol-6-yloxy)-2-(2-fluorophenyl)-3-((1-isopropylpiperidin-3-yl)methyl)quinazolin-4(3H)-one] were, in that order, 0.02 nM and “sub-nanomolar binding affinity”. In the case of `Cc1ccccc1-c1nc2ccc(Oc3ccc(F)cc3)cc2c(=O)n1C[C@H]1CCCNC1` [Compound 4a, (S)-6-(4-fluorophenoxy)-3-(piperidin-3-ylmethyl)-2-(o-tolyl)quinazolin-4(3H)-one, reference compound], in assay [1], the IC50 is 5.6 nM. Further, the Ki in assay [2] was 0.9 nM. `CC(C)N1CCC[C@H](Cn2c(-c3ccc(OCCF)cc3F)nc3ccc(Oc4ccc(F)cn4)cc3c2=O)C1` [Compound 17a, (S)-2-(2-fluoro-4-(2-fluoroethoxy)phenyl)-6-((5-fluoropyridin-2-yl)oxy)-3-((1-isopropylpiperidin-3-yl)methyl)quinazolin-4(3H)-one] gave an IC50 in assay [1] of 17.6 nM. In the case of `Cc1ccccc1-c1nc2ccc(Oc3ccc(F)cc3)cc2c(=O)n1C[C@H]1CCCN(CCF)C1` [Compound 5a, (S)-3-((1-(2-fluoroethyl)piperidin-3-yl)methyl)-6-(4-fluorophenoxy)-2-(o-tolyl)quinazolin-4(3H)-one], in assay [1], the concentration for half-maximal inhibition (IC50) amounted to 29.5 nM.

As for `Cc1ccccc1-c1nc2ccc(C(=O)c3ccc(F)cc3)cc2c(=O)n1C[C@H]1CCCNC1` [Compound 19, (S)-6-(4-fluorobenzoyl)-3-(piperidin-3-ylmethyl)-2-(o-tolyl)quinazolin-4(3H)-one], the IC50 in assay [1] was determined as 4 nM. Consider `Cc1ccccc1-c1nc2ccc(Oc3ccc4ncsc4c3)cc2c(=O)n1C[C@H]1CCCN(C(C)C)C1` [Compound 5g, (S)-6-(benzo[d]thiazol-6-yloxy)-3-((1-isopropylpiperidin-3-yl)methyl)-2-(o-tolyl)quinazolin-4(3H)-one], for which, in assay [1], the IC50 was found to be 1.8 nM and the “binding affinity with GHS-R1a” value is listed as “equivalent binding affinity to natural ghrelin”. Consider `CC(C)N1CCC[C@H](Cn2c(-c3ccc(OCCO)cc3F)nc3ccc(Oc4ccc(F)cn4)cc3c2=O)C1` [Compound 15a, (S)-2-(2-fluoro-4-(2-hydroxyethoxy)phenyl)-6-((5-fluoropyridin-2-yl)oxy)-3-((1-isopropylpiperidin-3-yl)methyl)quinazolin-4(3H)-one], for which the IC50 in assay [1] turned out to be 40.1 nM.
